Key:
Assay type in all cases: cell-based, human
[1] = test system: GPR142; experiment: Blocking effect by GPR142 RNAi in NHEK cells (Examples 5 and 6); conditions: calcium priming, siRNA 50 nM, Compound 1 10 nM, 1 day
Method: In this example, it was confirmed that the expression-inducing effects of Compound 1 on GPR142 mRNA and FLG mRNA in NHEK cells were blocked by GPR142 RNAi.
(§1) 1) 5×10^4 cells/well of NHEK cells (Invitrogen) were plated on a 24-well plate. Then, 500 μl of a culture medium containing a medium for proliferating normal human epidermal keratinocytes (HuMedia-KG2, KURABO INDUSTRIES LTD.) supplemented with hEGF (0.1 ng/ml), insulin (10 μg/ml), hydrocortisone (0.5 μg/ml), gentamycin (50 μg/ml), amphotericin B (50 ng/ml), and bovine brain pituitary extract (BPE) (0.4%, v/v) were added to the plate, and the cells were cultured under the conditions of 37° C. and 5% CO2.
2) After culture under the conditions of the step 1) for 1 day, the medium was exchanged for the culture medium of the step 1) to which CaCl2 (1.2 mM in terms of Ca) was further added as Ca, and culture was conducted under the conditions of 37° C. and 5% CO2. After culture for 1 day, the medium was exchanged for the same culture medium containing Ca, and culture was further conducted for 1 day.
3) The NHEK cells of the step 2) were transfected with 50 nM of siRNA per well of the 24-well plate by using a transfection reagent, Lipofectamine RNA Max (Invitrogen) according to the manufacturer's protocol.
The sequences of the used three kinds of GPR142 siRNAs and the sequences of the used control siRNAs (all the siRNAs are manufactured by Invitrogen) are described below.
4) After culture for 1 day after the transfection with siRNA in the step 3), the medium was exchanged for the culture medium of the step 1) to which a DMSO solution of Compound 1 was added at 10 nM per well, and culture was further conducted for 1 day. As a control, a solvent only (vehicle) was added.
5) An extraction reagent (TRIzol™, Invitrogen) was used, and according to the manufacturer's protocol, total RNA was extracted from each of cells treated with the medicament. A reverse transcriptase reagent (Prime Script™, Takara) was used, and according to the manufacturer's protocol, cDNA was prepared from the total RNA. Next, real-time PCR was conducted by using the following primers and SYBR™ Premix Ex Taq (Takara) with a CFX96 real-time PCR instrument according to the manufacturer's protocol, and the amounts of GPR142 mRNA and FLG mRNA expression were measured. The result of measurement is shown as a GAPDH ratio.
In this example, it was confirmed that the expression-inducing effects of Compound 2 or 3 on GPR142 mRNA and FLG mRNA in NHEK cells were blocked by GPR142 RNAi.
NHEK cells were transfected in the same manner as in Example 5 except that, in the steps 1) to 3) of Example 5, two kinds of GPR142 siRNAs and two kinds of control siRNAs, i.e., GPR142-1 (#HSS139493) and GPR142-3 (#HSS179846) and Control-1 (LOW GC, #129350-200), and Control-3 (HIGH GC, #129350-400) were used as GPR142 siRNAs and control siRNAs, respectively. After culture for 1 day after the transfection was conducted in the same manner as in the step 4) of Example 5, the medium was exchanged for the culture medium to which each of a DMSO solution of Compound 1, a DMSO solution of Compound 2, or a methanol solution of Compound 3 was added at 10 nM per well, and culture was further conducted for 1 day. As a control, a solvent only (vehicle) was added. Regarding each of cells treated with the medicament, real-time PCR was conducted to measure the amounts of GPR142 mRNA and FLG mRNA in the same manner as in the step 5) of Example 5. The results of the measurement are shown as a GAPDH ratio.

[2] = test system: GPR142 mRNA; experiment: GPR142 mRNA expression in NHEK cells, real-time PCR (Example 4); conditions: Compound 1 1 μM, Ca 1.2 mM, 3 days, compared to the control
Method: In this example, the expression-inducing effects of Compound 1 on GPR142 mRNA and GPR22 mRNA in NHEK cells were confirmed.
as §1
2) After culture under the conditions of the step 1) for 1 day, the medium was exchanged for the culture medium of the step 1) to which a DMSO solution of Compound 1 was added at 1 μM per well every day and the culture was conducted for 3 days. […]
3) An extraction reagent (TRIzol™, Invitrogen) was used, and according to the manufacturer's protocol, total RNA was extracted from each of cells treated with the medicament. […] Next, real-time PCR was conducted by using the following primers and SYBR™ Premix Ex Taq (Takara) with a CFX96 real-time PCR instrument according to the manufacturer's protocol, and the amounts of GPR142mRNA and GPR22mRNA expression were measured. […]

[3] = test system: GPR142; experiment: G protein-coupled receptor (GPCR) array in NHEK cells, GPR142 (Example 3); conditions: Compound 1 1 μM, 3 days
Method: In this example, the expression-increasing effect of Compound 1 on a GPCR in NHEK cells was confirmed by using a GPCR array.
1) 5×10^4 cells/well of NHEK cells (Invitrogen) were plated on a 24-well plate, and then 500 μl of a culture medium containing a medium for proliferating normal human epidermal keratinocytes (HuMedia-KG2, KURABO INDUSTRIES LTD.) supplemented with hEGF (0.1 ng/ml), insulin (10 μg/ml), hydrocortisone (0.5 μg/ml), gentamycin (50 μg/ml), amphotericin B (50 ng/ml), and bovine brain pituitary extract (BPE) (0.4%, v/v) were added to the plate, and the cells were cultured under the conditions of 37° C. and 5% CO2 for from 3 to 4 days until the 80 to 85% confluent state was achieved.
2) Next, a DMSO solution of Compound 1 was added to the medium at 1 μM per well, and culture was further conducted for 3 days without changing the medium. In addition, regarding the system to which only CaCl2 (1.5 mM in terms of Ca) as Ca was added and the system to which both Compound 1 and CaCl2 (1.5 mM in terms of Ca) as Ca were added, the culture was conducted in a similar manner for 3 days. As a control example, a solvent only (vehicle) was added.
3) An extraction reagent (TRIzol™, Invitrogen) was used, and according to the manufacturer's protocol, total RNA was extracted from each of cells treated in the step 2). A reverse transcriptase reagent (Prime Script™, Takara) was used, and according to the manufacturer's protocol, cDNA was prepared from the total RNA. Next, a TaqMan™ human GPCR array (AB 4365295, Applied Biosystems) was used, and the analysis was conducted by an ABI PRISM™ 7900HT gene analyzer (Applied Biosystems). The result of measurement was shown as the comparison of the cycle number (ΔCt value) to 18S ribosomal RNA as a control (comparative Ct method).

[4] = test system: GPR22; experiment: Blocking effect by GPR22 RNAi in NHEK cells (Reference Example 1); conditions: calcium priming, siRNA 10 nM, Compound 1 10 nM, 1 day
Method: as §1
2) 1 day after the step 1), the medium was exchanged for the medium supplemented with calcium every day, and culture was conducted for 2 days (priming).
3) The NHEK cells of the step 2) were transfected with 10 nM of siRNA per well of the 24-well plate by using a transfection reagent, Lipofectamine RNA Max (Invitrogen) according to the manufacturer's protocol.
4) After culture for 1 day after the step 3), the medium was exchanged for a medium to which Compound 1 dissolved in DMSO was added at 10 nM per well on the 24-well plate, and culture was conducted for 1 day. As a control example, a solvent only (vehicle) was added.
5) An extraction reagent (TRIzol™, Invitrogen) was used, and according to the manufacturer's protocol, total RNA was extracted from each of cells treated with the medicament. A reverse transcriptase reagent (Prime Script™, Takara) was used, and according to the manufacturer's protocol, cDNA was prepared from the total RNA. Real-time PCR was conducted by using SYBR™ Premix Ex Taq (Takara) with a CFX96 real-time PCR instrument according to the manufacturer's protocol, and the amounts of GPR22 mRNA and FLG mRNA were measured. The results of measurement are shown as a GAPDH ratio.

[Ca+2].[Cl-].[Cl-] [Calcium, CaCl2, reference compound]
FLG mRNA expression in the presence of GPR142 siRNA [1]: suppressed by GPR142 siRNA
GPR142 mRNA expression in the presence of GPR142 siRNA [1]: suppressed by GPR142 siRNA
GPR142 mRNA expression (GAPDH ratio) [2]: GPR142 mRNA expression was induced
GPR142 mRNA expression (GPCR array), in words ([3]; Ca 1.5 mM): induced GPR142 mRNA expression
GPR142: cycle number (ΔCt value) to 18S ribosomal RNA ([3]; CaCl2 1.5 mM in terms of Ca, control 29.2): −4.9
FLG mRNA expression in the presence of GPR22 siRNA [4]: not suppressed
GPR22 mRNA expression in the presence of GPR22 siRNA [4]: suppressed by GPR22 siRNA

Reference: patent publication US20150190416A1, “FILAGGRIN PRODUCTION PROMOTER, THERAPEUTIC AGENT FOR DISEASES ASSOCIATED WITH REDUCTION IN PRODUCTION OF FILAGGRIN, AND METHOD FOR SCREENING FOR SAID THERAPEUTIC AGENT” (KYOTO UNIVERSITY, priority 2012, published 2015)
